Values of other authors as cited in patent publication US20080160503A1, “RAPID ANALYSIS OF ORAL BIOAVAILABILITY” (priority 2006, published 2008).

Conditions: background statement; for first-pass metabolism: oral administration, gut wall and liver; for bioavailability through the oral route: no data shown

Structure (SMILES): CC(C)NCC(O)c1ccc(O)c(O)c1 (centres unmarked) [isoproterenol]
- first-pass metabolism: extensive
- bioavailability through the oral route: virtually zero

Structure (SMILES): NC[C@H](O)c1ccc(O)c(O)c1 [norepinephrine]
- bioavailability through the oral route: virtually zero

Structure (SMILES): C[C@]12CC[C@H]3[C@@H](CCC4=CC(=O)CC[C@@]43C)[C@@H]1CC[C@@H]2O [testosterone]
- first-pass metabolism: extensive
- bioavailability through the oral route: virtually zero
